{"source": "patent US10774039B2", "about": "“Cyclopropene amino acids and methods” (United Kingdom Research and Innovation, priority 2014, dated 2020)", "target": "PylRS/tRNACUA pair (Methanosarcina mazei, UniProt Q8PWY1)", "sequence (Q8PWY1 whole entry, the tested form may be a part)": "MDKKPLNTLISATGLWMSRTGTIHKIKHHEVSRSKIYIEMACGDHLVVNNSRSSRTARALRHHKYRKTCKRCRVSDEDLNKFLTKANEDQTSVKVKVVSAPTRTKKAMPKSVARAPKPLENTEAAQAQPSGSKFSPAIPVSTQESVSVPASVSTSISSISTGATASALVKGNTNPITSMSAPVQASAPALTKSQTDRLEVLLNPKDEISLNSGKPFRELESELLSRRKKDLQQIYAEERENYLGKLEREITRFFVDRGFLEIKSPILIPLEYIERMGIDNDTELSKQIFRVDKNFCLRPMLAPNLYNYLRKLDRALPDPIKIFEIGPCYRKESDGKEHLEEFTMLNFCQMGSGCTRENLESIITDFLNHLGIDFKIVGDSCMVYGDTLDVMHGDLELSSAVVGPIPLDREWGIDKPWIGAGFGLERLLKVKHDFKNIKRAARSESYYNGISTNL", "assay": "Dual luciferase reporter assay on ovary extract of flies fed amino acid", "format": "in vivo, D. melanogaster", "set-up": "expressed in transfected cells; host or cells: transgenic Drosophila melanogaster, ovaries (UAS-PylRS driven by nos-vp16-GAL4)", "settings": "flies fed 10 mM amino acid", "procedure": "Dual luciferase assay on ovary extract from 10 female flies expressing Triple-Rep-L in the presence or absence of 10 mM 1 or 10 mM 3. […] The error bars represent the standard deviation of 3 technical replicates from a single biological replicate. FIG. 10B: Site-specific incorporation of 3 (or 1) into GFP_TAG_mCherry-HA in flies expressing PylRS/PyltRNACUA. The full-length protein resulting from unnatural amino acid incorporation is detected by anti-HA western blot. FIG. 10C: Specific labelling of encoded 3 with tetrazine probes. Flies were fed with no amino acid, amino acid 1 (500 flies) or amino acid 3 (100 flies). […] The full-length protein containing the unnatural amino acid was immunoprecipitated from lysed ovaries with anti-GFP beads. The beads were labelled (4g, 4 μM, 200 μL, PBS, RT, 2 h) washed.\nTransgenic lines were created by P element insertion using a Drosophila embryo injection service (BestGene Inc.). Lines were generated using the following plasmids: pFT58 (Ala), pFT60 (Ser), pFT62 (Leu) and pFT63 (Met). nos-Gal4-VP16 (Bloomington 4937) and MS1096-Gal4 (Bloomington 8860) were used as Gal4 drivers. All flies were grown at 25° C. on standard Iberian medium. Flies were fed unnatural amino acids by mixing dried yeast with the appropriate concentration of amino acid (usually 10 mM) diluted in dH2O to make a paste. Ovaries were prepared from females that were grown on Iberian fly food supplemented with a yeast paste with or without the amino acid for a minimum of 48 hours. For proteome labelling experiments transgenic male flies of constructs FT58, FT60, FT62 and FT63 were crossed with nos-vp16-GAL4 virgins to generate FT58/nos-vp16-GAL4, FT60/nos-vp16-GAL4, FT62/nos-vp16-GAL4 and FT63/nos-vp16-GAL4 respectively.\nOvaries from 10 females of Triple Rep-L flies recombined with nos-Gal4-VP16 fed 3, 1 or no amino acid were dissected in 100 μl 1× Passive lysis buffer and processed for luciferase assays as previously described^20.", "data": [{"smiles": "CC1=CC1COC(=O)NCCCC[C@H](N)C(=O)O", "note": "(stereo partly drawn) [amino acid 3, N^ε-[((2-methylcycloprop-2-en-1-yl)methoxy)carbonyl]-L-lysine]", "values": [{"measurement": "dual luciferase signal compared with 1", "value": "larger"}, {"measurement": "luciferase signal dependent on amino acid addition", "value": "strong luciferase signal"}]}]}
